ChEMBL document CHEMBL4507291 (2021)

Tests used:
[1] = biological target: T1, NUAK family SNF1-like kinase 1 (Homo sapiens) (UniProt O60285); assay: NUAK1 (ARK5) Kinase screen; settings: Compound concentration 1.0 uM
T1 sequence (whole entry): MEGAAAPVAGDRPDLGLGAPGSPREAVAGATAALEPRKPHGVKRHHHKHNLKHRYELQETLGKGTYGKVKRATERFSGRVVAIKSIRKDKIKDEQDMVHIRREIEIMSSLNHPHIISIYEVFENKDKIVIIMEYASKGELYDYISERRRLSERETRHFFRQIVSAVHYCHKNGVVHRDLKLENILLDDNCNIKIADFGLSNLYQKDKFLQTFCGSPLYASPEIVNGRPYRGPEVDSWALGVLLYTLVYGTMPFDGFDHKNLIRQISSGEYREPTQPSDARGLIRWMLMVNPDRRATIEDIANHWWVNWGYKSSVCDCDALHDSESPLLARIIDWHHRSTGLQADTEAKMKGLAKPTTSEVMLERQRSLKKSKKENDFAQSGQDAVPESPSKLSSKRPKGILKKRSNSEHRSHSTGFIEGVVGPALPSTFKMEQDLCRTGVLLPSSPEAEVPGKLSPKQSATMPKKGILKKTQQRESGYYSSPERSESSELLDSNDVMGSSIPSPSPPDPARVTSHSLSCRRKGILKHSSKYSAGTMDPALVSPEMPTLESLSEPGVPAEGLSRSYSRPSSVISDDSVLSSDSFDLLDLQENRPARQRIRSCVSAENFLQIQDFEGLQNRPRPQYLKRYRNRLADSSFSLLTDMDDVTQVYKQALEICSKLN

[2] = biological target: T2, Ephrin type-B receptor 4 (Homo sapiens) (UniProt P54760); assay: EPHB4 Kinase screen; settings: Compound concentration 1.0 uM
T2 sequence (whole entry): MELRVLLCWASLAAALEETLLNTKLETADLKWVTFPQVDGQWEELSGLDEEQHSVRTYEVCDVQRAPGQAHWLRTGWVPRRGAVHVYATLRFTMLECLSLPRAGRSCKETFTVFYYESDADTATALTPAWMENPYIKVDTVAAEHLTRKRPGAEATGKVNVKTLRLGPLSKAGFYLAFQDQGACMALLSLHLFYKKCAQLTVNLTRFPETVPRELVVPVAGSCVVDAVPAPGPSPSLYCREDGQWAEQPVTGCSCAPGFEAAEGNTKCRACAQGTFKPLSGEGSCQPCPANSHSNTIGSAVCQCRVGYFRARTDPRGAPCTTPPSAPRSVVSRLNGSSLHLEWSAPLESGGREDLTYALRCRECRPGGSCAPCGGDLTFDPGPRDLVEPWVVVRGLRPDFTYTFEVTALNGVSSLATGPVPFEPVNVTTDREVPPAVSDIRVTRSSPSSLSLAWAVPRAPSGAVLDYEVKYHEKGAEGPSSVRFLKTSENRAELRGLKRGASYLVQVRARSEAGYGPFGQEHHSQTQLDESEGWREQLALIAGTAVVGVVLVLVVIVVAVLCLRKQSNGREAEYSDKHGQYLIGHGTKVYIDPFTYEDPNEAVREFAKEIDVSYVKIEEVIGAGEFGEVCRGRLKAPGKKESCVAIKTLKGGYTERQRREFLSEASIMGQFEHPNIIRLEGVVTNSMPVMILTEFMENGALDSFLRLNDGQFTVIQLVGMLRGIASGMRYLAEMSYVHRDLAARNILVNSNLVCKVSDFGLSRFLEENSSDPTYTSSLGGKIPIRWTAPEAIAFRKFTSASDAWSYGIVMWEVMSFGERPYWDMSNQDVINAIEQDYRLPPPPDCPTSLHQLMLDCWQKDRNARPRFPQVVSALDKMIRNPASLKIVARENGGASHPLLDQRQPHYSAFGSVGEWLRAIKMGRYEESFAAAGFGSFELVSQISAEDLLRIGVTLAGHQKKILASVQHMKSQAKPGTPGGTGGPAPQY

[3] = biological target: Acetylcholine receptor subunit alpha (Homo sapiens) (UniProt P02708); assay: Inhibition of Nicotinic Acetylcholine D1, Bungarotoxin at 10 µM in the Eurofins-Panlabs radioligand binding assay (Eurofins_assay_258700); settings: Compound concentration 10.0 uM
Acetylcholine receptor subunit alpha (Homo sapiens), sequence (P02708 whole entry): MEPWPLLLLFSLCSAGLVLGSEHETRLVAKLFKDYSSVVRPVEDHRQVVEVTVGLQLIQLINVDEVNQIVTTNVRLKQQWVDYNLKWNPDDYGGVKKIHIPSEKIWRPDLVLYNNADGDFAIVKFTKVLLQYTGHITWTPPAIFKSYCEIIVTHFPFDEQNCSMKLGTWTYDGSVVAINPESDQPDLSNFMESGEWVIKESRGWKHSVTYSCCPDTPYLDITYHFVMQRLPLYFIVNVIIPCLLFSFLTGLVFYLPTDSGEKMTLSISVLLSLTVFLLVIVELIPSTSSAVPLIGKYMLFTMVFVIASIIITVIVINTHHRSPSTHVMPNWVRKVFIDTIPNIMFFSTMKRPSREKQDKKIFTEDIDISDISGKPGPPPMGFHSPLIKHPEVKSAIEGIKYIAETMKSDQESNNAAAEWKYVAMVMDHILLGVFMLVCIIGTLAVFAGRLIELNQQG

[4] = biological target: T3, Rhodopsin kinase GRK7 (Homo sapiens) (UniProt Q8WTQ7); assay: GRK7 Kinase screen; settings: Compound concentration 1.0 uM
T3 sequence (whole entry): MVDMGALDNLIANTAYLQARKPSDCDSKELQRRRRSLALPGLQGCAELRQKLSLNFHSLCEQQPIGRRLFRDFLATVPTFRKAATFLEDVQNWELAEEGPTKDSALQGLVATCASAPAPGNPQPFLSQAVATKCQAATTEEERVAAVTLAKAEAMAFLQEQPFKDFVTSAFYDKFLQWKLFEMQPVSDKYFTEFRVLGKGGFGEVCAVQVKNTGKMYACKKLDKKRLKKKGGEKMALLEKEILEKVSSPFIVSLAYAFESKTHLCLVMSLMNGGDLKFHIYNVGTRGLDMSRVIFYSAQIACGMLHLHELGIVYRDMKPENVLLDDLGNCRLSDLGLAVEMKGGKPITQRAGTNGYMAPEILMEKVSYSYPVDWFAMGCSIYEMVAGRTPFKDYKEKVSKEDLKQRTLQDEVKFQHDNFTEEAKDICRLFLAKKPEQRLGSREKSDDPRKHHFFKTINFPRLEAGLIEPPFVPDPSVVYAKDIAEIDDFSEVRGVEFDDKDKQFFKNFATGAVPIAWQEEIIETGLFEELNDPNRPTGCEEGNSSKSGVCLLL

[5] = biological target: Dual specificity mitogen-activated protein kinase kinase 2 (Homo sapiens) (UniProt P36507); assay: MAP2K2 (MEK2) Kinase screen; settings: Compound concentration 1.0 uM
Dual specificity mitogen-activated protein kinase kinase 2 (Homo sapiens), sequence (P36507 whole entry): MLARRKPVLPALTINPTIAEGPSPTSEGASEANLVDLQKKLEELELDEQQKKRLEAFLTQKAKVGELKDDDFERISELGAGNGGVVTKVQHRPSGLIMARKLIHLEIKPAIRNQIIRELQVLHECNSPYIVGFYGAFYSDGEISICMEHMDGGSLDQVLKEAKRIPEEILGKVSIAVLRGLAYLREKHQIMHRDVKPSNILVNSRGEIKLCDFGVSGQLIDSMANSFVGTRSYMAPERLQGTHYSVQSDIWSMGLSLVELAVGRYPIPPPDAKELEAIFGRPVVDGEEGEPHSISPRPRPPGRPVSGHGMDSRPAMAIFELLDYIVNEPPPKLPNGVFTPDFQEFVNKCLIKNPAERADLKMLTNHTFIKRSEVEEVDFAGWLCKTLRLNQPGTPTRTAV

[6] = biological target: Tyrosine-protein kinase HCK (Homo sapiens) (UniProt P08631); assay: HCK Kinase screen; settings: Compound concentration 1.0 uM
Tyrosine-protein kinase HCK (Homo sapiens), sequence (P08631 2-526 limits assumed): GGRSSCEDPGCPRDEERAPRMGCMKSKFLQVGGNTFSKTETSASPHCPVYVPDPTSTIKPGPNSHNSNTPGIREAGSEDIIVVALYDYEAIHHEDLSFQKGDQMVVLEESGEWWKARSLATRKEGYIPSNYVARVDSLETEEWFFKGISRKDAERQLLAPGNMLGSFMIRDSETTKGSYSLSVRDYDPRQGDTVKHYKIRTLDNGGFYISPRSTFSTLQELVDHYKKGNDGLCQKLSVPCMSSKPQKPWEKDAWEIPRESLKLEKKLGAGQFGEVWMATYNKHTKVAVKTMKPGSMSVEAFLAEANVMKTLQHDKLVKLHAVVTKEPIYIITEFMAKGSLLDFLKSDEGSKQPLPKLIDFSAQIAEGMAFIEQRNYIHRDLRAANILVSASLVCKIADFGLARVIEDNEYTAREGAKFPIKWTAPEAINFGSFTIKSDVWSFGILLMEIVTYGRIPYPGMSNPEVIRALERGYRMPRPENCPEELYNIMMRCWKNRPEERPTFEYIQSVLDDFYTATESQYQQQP

[7] = biological target: Prostaglandin E2 receptor EP3 subtype (Homo sapiens) (UniProt P43115); assay: Prostanoid EP3 Eurofins-Panlabs radioligand binding assay; set-up: ligand concentration 0.5 nM, non-specific ligand with concentration 10 µM Prostaglandin EŽ2 (PGE2), incubation time 60 min, incubation temperature 25 °C; settings: Compound concentration 10.0 uM
Prostaglandin E2 receptor EP3 subtype (Homo sapiens), sequence (P43115 whole entry): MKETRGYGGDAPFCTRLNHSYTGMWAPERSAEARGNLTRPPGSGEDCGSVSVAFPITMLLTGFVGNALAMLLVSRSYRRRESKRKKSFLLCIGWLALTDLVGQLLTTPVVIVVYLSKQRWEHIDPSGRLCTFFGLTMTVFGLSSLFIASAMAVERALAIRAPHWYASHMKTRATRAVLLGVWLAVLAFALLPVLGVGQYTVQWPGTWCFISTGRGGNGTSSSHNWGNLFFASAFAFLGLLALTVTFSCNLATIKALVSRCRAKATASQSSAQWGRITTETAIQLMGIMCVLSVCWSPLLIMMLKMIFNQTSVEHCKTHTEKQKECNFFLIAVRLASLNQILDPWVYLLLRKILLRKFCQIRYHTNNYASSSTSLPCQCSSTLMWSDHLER

[8] = biological target: T4, Alpha-2C adrenergic receptor (Homo sapiens) (UniProt P18825); assay: Adrenergic alpha2C Eurofins-Panlabs radioligand binding assay; set-up: ligand concentration 1 nM, non-specific ligand with concentration 10 µM WB-4101, incubation time 60 min, incubation temperature 25 °C; settings: Compound concentration 10.0 uM
T4 sequence (whole entry): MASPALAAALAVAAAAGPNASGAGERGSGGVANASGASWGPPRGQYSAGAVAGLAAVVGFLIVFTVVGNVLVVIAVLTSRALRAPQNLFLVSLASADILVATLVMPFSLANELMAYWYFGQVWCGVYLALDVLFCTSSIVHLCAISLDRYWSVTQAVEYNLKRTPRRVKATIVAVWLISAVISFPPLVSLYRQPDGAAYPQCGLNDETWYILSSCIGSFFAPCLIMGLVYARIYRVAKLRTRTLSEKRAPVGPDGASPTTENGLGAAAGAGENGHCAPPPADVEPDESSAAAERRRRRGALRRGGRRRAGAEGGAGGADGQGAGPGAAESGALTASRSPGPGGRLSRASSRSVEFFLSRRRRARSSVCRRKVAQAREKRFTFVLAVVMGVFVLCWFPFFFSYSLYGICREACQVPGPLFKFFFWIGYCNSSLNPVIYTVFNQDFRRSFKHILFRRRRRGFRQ

Rattus norvegicus = species: Rattus norvegicus; assay: Glutamate, NMDA, Polyamine Eurofins-Panlabs radioligand binding assay; format: protein-complex assay; set-up: ligand concentration 2 nM; settings: Compound concentration 10.0 uM

Measured: inhibition

C[C@@H]1CN(c2cc(-c3n[nH]c4ccc(OC5(C)CC5)cc34)ncn2)C[C@H](C)O1 [MLi-2]
inactive: [1] 14.5% | [2] 2.23% | [3] 6% | [4] 4.4% | [5] 20.3% | [6] 7.67% | [7] -4% | [8] 14% | Rattus norvegicus 19%
